From the NIST ThermoML archive (doi:10.1016/j.jct.2017.03.004)
± gives the expanded uncertainty stated by the source.

Assay: activity coefficient (dimensionless); of the first substance listed, at infinite dilution; xn = mol fraction of the nth substance listed
Settings: 101.33 kPa, Liquid, Chromatography, x1 = 0

Row | SMILES | activity coefficient (318.15 K) | activity coefficient (328.15 K) | activity coefficient (338.15 K) | activity coefficient (348.15 K) | activity coefficient (358.15 K) | activity coefficient (368.15 K) | activity coefficient (298.15 K) | activity coefficient (308.15 K)
1 | CC(C)c1ccccc1 [isopropylbenzene] + N#C[N-]C#N.OCCC[n+]1ccccc1 | 29.5 ± 2 | 29.7 ± 2 | 29.8 ± 2 | 30 ± 2.1 | 30.2 ± 2.1 | 30.4 ± 2.1 |  | 
2 | Cc1ccccc1 [toluene] + N#C[N-]C#N.OCCC[n+]1ccccc1 | 8.44 ± 0.58 | 8.72 ± 0.59 | 9.03 ± 0.62 | 9.31 ± 0.64 | 9.58 ± 0.65 | 9.85 ± 0.67 |  | 
3 | CCC(=O)CC [pentan-3-one] + N#C[N-]C#N.OCCC[n+]1ccccc1 | 5.68 ± 0.39 | 5.92 ± 0.4 | 6.15 ± 0.42 | 6.36 ± 0.43 | 6.57 ± 0.45 | 6.79 ± 0.46 |  | 
4 | CCOC(C)=O [ethyl acetate] + N#C[N-]C#N.OCCC[n+]1ccccc1 | 6.37 ± 0.43 | 6.6 ± 0.45 | 6.81 ± 0.46 | 7.02 ± 0.48 | 7.23 ± 0.49 | 7.43 ± 0.51 |  | 
5 | CC(C)OC(C)C [diisopropyl ether] + N#C[N-]C#N.OCCC[n+]1ccccc1 | 105 ± 7 | 102 ± 7 | 99.8 ± 6.8 | 97.5 ± 6.7 | 95.4 ± 6.5 | 93.6 ± 6.4 |  | 
6 | CCC(C)CC [3-methylpentane] + N#C[N-]C#N.OCCC[n+]1ccccc1 | 286 ± 20 | 272 ± 19 |  |  |  |  | 321 ± 22 | 302 ± 21
7 | CC(C)(C)O [2-methylpropan-2-ol] + N#C[N-]C#N.OCCC[n+]1ccccc1 | 3.08 ± 0.21 | 3.08 ± 0.21 | 3.07 ± 0.21 | 3.07 ± 0.21 | 3.07 ± 0.21 | 3.05 ± 0.21 |  | 
8 | C=CCCCCC [1-heptene] + N#C[N-]C#N.OCCC[n+]1ccccc1 | 200 ± 14 | 190 ± 13 | 182 ± 13 | 174 ± 12 | 167 ± 11 |  | 223 ± 15 | 211 ± 15
9 | C=CCCCCCC [oct-1-ene] + N#C[N-]C#N.OCCC[n+]1ccccc1 | 346 ± 24 | 326 ± 22 | 310 ± 21 | 295 ± 20 | 282 ± 19 |  | 391 ± 27 | 367 ± 25
10 | C#CCCCCC [1-heptyne] + N#C[N-]C#N.OCCC[n+]1ccccc1 | 37.4 ± 2.6 | 38.2 ± 2.6 | 39 ± 2.7 | 39.7 ± 2.7 | 40.4 ± 2.8 |  | 35.7 ± 2.4 | 36.5 ± 2.5
11 | CCCCCCCC [octane] + N#C[N-]C#N.OCCC[n+]1ccccc1 | 772 ± 53 | 710 ± 49 | 654 ± 45 | 605 ± 42 | 564 ± 39 |  | 930 ± 64 | 846 ± 58
12 | CC#N [acetonitrile] + N#C[N-]C#N.OCCC[n+]1ccccc1 | 1.24 ± 0.08 | 1.29 ± 0.08 | 1.34 ± 0.09 | 1.38 ± 0.09 | 1.43 ± 0.09 | 1.48 ± 0.1 |  | 
13 | Cc1ccccc1C [1,2-dimethylbenzene] + N#C[N-]C#N.OCCC[n+]1ccccc1 | 11.1 ± 0.8 | 11.5 ± 0.8 | 11.9 ± 0.8 | 12.3 ± 0.8 | 12.7 ± 0.9 | 13 ± 0.9 |  | 
14 | C=CCCC [1-pentene] + N#C[N-]C#N.OCCC[n+]1ccccc1 | 66.3 ± 4.5 | 63.1 ± 4.3 |  |  |  |  | 74.6 ± 5.1 | 70.2 ± 4.8
15 | C=CCCCC [hex-1-ene] + N#C[N-]C#N.OCCC[n+]1ccccc1 | 120 ± 8 | 115 ± 8 | 111 ± 8 | 107 ± 7 | 103 ± 7 |  | 130 ± 9 | 125 ± 9
16 | c1ccsc1 [thiophene] + N#C[N-]C#N.OCCC[n+]1ccccc1 | 2.6 ± 0.18 | 2.71 ± 0.18 | 2.81 ± 0.19 | 2.93 ± 0.2 | 3.03 ± 0.21 | 3.14 ± 0.21 |  | 
17 | CCCC(C)=O [pentan-2-one] + N#C[N-]C#N.OCCC[n+]1ccccc1 | 5.58 ± 0.38 | 5.77 ± 0.39 | 5.96 ± 0.41 | 6.14 ± 0.42 | 6.33 ± 0.43 | 6.5 ± 0.44 |  | 
18 | CCC(=O)OC [methyl propanoate] + N#C[N-]C#N.OCCC[n+]1ccccc1 | 5.77 ± 0.39 | 5.99 ± 0.41 | 6.2 ± 0.42 | 6.42 ± 0.44 | 6.61 ± 0.45 | 6.81 ± 0.46 |  | 
19 | C1CCOC1 [tetrahydrofuran] + N#C[N-]C#N.OCCC[n+]1ccccc1 | 3.1 ± 0.21 | 3.25 ± 0.22 | 3.38 ± 0.23 | 3.53 ± 0.24 | 3.66 ± 0.25 | 3.79 ± 0.26 |  | 
20 | CCOCC [diethyl ether] + N#C[N-]C#N.OCCC[n+]1ccccc1 | 21.5 ± 1.5 | 21.5 ± 1.5 | 21.5 ± 1.5 | 21.5 ± 1.5 | 21.4 ± 1.5 | 21.4 ± 1.5 |  | 
21 | CC1CCCCC1 [methylcyclohexane] + N#C[N-]C#N.OCCC[n+]1ccccc1 | 182 ± 13 | 170 ± 12 | 160 ± 11 | 150 ± 10 | 143 ± 10 |  | 210 ± 14 | 195 ± 13
22 | C1CCCCCCC1 [cyclooctane] + N#C[N-]C#N.OCCC[n+]1ccccc1 | 201 ± 14 | 188 ± 13 | 178 ± 12 | 168 ± 12 | 159 ± 11 |  | 231 ± 16 | 215 ± 15
23 | Cc1ccc(C)cc1 [1,4-dimethylbenzene] + N#C[N-]C#N.OCCC[n+]1ccccc1 | 13.8 ± 0.9 | 14.3 ± 1 | 14.8 ± 1 | 15.3 ± 1 | 15.7 ± 1.1 | 16.2 ± 1.1 |  | 
24 | CO [methanol] + N#C[N-]C#N.OCCC[n+]1ccccc1 | 0.682 ± 0.046 | 0.692 ± 0.047 | 0.703 ± 0.047 | 0.713 ± 0.048 | 0.725 ± 0.048 | 0.733 ± 0.049 |  | 
25 | CCCCCC [hexane] + N#C[N-]C#N.OCCC[n+]1ccccc1 | 296 ± 20 | 269 ± 18 |  |  |  |  | 364 ± 25 | 328 ± 23
26 | CC(C)O [propan-2-ol] + N#C[N-]C#N.OCCC[n+]1ccccc1 | 2.24 ± 0.15 | 2.2 ± 0.2 | 2.18 ± 0.15 | 2.15 ± 0.15 | 2.13 ± 0.14 | 2.11 ± 0.14 |  | 
27 | C=Cc1ccccc1 [styrene] + N#C[N-]C#N.OCCC[n+]1ccccc1 | 6.93 ± 0.47 | 7.23 ± 0.49 | 7.51 ± 0.51 | 7.79 ± 0.53 | 8.06 ± 0.55 | 8.32 ± 0.57 |  | 
28 | c1ccccc1 [benzene] + N#C[N-]C#N.OCCC[n+]1ccccc1 | 5.02 ± 0.34 | 5.18 ± 0.35 | 5.36 ± 0.37 | 5.53 ± 0.38 | 5.69 ± 0.39 | 5.85 ± 0.4 |  | 
29 | C1=CCCCC1 [cyclohexene] + N#C[N-]C#N.OCCC[n+]1ccccc1 | 36.6 ± 2.5 | 35.8 ± 2.4 | 34.8 ± 2.4 | 34 ± 2.3 | 33.4 ± 2.3 |  | 38.7 ± 2.6 | 37.6 ± 2.6
